Results as given in paper PMC9409995, “Pharmacological Properties and Function of the PxOctβ3 Octopamine Receptor in Plutella xylostella (L.)” (Insects, 2022).

What was measured:
PxOctβ3 [1] = target: T1, PxOctβ3 (Plutella xylostella, UniProt Z9TZ33AL48); experiment: intracellular cAMP assay, HEK-293 cells stably expressing the receptor; type: cell-based
T1 construct: pcDNA3.1-PxOctβ3 stably expressed in HEK-293 cells; ORF also cloned in pEGFP-N1

PxOctβ3 [2] = target: T1, PxOctβ3; experiment: as above; type: cell-based; conditions: agonist; 1 nM-100 μM; b43 prints approximately 65 nM

Structure (SMILES) | fold cAMP at 10 μM (PxOctβ3 [1]; weak agonist) | fold cAMP at 10 μM (PxOctβ3 [1]; agonist) [fold] | further results
Cc1ccc(/N=C/N(C)/C=N/c2ccc(C)cc2C)c(C)c1 [amitraz] | clonidine, amitraz, and 2-phenylethylamine were barely effective agonists | – | –
Clc1cccc(Cl)c1NC1=NCCN1 [clonidine] | clonidine, amitraz, and 2-phenylethylamine were barely effective agonists | – | –
NCCc1ccc(O)c(O)c1 [dopamine] | – | 2.3 | –
NCCc1ccc(O)cc1 [tyramine] | – | 9.6 | –
NCCc1ccccc1 [2-phenylethylamine] | clonidine, amitraz, and 2-phenylethylamine were barely effective agonists | – | –
NC[C@H](O)c1ccc(O)cc1 [octopamine] | – | – | EC50 (PxOctβ3 [2]): 65 nM
